Reference: patent US20170007605A1, “Method of Optimizing the Treatment of Philadelphia-positive Leukemia with Abl Tyrosine Kinase Inhibitors” (Novartis AG, priority 2006, published 2017)
Values joined by “and” are separate entries in the source; they are usually repeats but may differ in a detail not shown here. Equal values may be shown once.

How the values were obtained:
[1] = Plasma trough levels (Cmin) of Imatinib and CGP74588, IRIS study (LC/MS/MS); format: in vivo
[2] = in patients; cited from earlier work
CML patients = assay: Cytogenetic (CCR) and molecular (MMR) response to Imatinib mesylate therapy and ROC curve analysis, Bordeaux study; format: in vivo, human; details: of 68 CML patients, after at least one year's treatment, 400 or 600 mg once daily
Protocol: The cytogenetic response to Imatinib mesylate therapy was assessed using a conventional cytogenetic analysis of bone marrow metaphases. Cytogenetic responders were defined as having CCR, i.e. 0 percent of Philadelphia-chromosome-positive metaphases among at least 25 cells in metaphase in the bone marrow aspirate (Colombat M, Fort M P, Chollet C, et al. Haematologica 2006; 91:162-8.). Real-time quantitative reverse-transcriptase polymerase chain reaction assay was used to assess BCR-ABL transcript levels and quantify the molecular response (Colombat M, Fort M P, Chollet C, et al. see above). Briefly, EDTA-anticoagulated peripheral blood was collected to perform RNA extraction followed by real-time quantitative reverse-transcriptase polymerase chain reaction. […] Quantification of BCR-ABL transcripts was performed according to recommendations recently proposed for harmoniza-tion of results (Hughes T P, Deininger M, Hochhaus A, et al. Blood 2006; 108:28-37.). […] A standardized baseline was calculated by measuring the ratio of BCR-ABL/ABL in 40 chronic-phase CML patients from blood collected before any treatment. […]
Any relationship between BCR-ABL transcript levels and the range time from date of Imatinib mesylate treatment initiation to date of molecular analysis was evaluated.
Results were expressed as adjusted odds ratio; 95 percent confidence interval; P value of Wald test.

[3] = system: newly diagnosed patients with CML in chronic phase (CML-CP); details: cited from earlier work
[4] = Trough plasma Imatinib concentrations at steady-state, Bordeaux study (HPLC-ESI-MS/MS)
CML-CP patients = assay: CCR and MMR rates by steady-state Imatinib trough level quartile, IRIS study; format: in vivo, human
Protocol: Rates of CCR (defined as 0% Ph+ metaphase cells out of at least 20 examined) in the study population and major molecular response (MMR, defined as ≧3 log reduction in BCR-ABL/BCR ratio from a standardized baseline) in subjects who achieved CCR before were reported previously (O'Brien S G, Guilhot F, Larson R A, et al., see above).
CCR were evaluated up to 5 years.

[5] = Day 29, Quartiles 2 and 3, N = 178
[6] = five year follow-up, first-line imatinib
[7] = 400 mg daily, 50 patients, steady-state
[8] = 600 mg daily, 18 patients, steady-state
[9] = patients without MMR (34 patients)

Cc1ccc(NC(=O)c2ccc(CN3CCNCC3)cc2)cc1Nc1nccc(-c2cccnc2)n1 [CGP74588, N-{5-[4-(piperazino-methyl)-benzoylamido]-2-methylphenyl}-4-(3-pyridyl)-2-pyrimidine-amine]
Steady-state trough level, mean (±SD) ([1]; Day 29, 400 mg daily, overall N = 351): 241.9±105.5 ng/mL and 242 (±105.5) ng/mL
CGP74588/Imatinib trough concentration ratio, mean (±SD) ([1]; Day 29, Quartile 1, N = 87): 0.32 (±0.106)
Steady-state trough level, mean (±SD) ([1]; Day 29, Quartile 1, N = 87): 153 (±48.5) ng/mL
CGP74588/Imatinib trough concentration ratio, mean (±SD) ([1]; Day 29, Quartile 4, N = 86): 0.21 (±0.052)
Steady-state trough level, mean (±SD) ([1]; Day 29, Quartile 4, N = 86): 343 (±126.1) ng/mL
CGP74588/Imatinib trough concentration ratio, mean (±SD) [1, 5]: 0.27 (±0.068)
Steady-state trough level, mean (±SD) [1, 5]: 236 (±65.8) ng/mL
24-hour trough concentration after the first dose ([1]; first 400 mg dose, Day 2, mean±SD): 82.7 ± 47.4 ng/mL
Contribution of the metabolite to Imatinib exposure ([1]; in vivo): < 20%
Spearman correlation coefficient between parent drug and metabolite levels ([1]; in vivo): 0.76
Accumulation ratio to steady state ([1]; trough levels on days 2 and 29 in the same subject): 3.38±1.54
Metabolite level as share of the parent drug plasma level [2]: ~20%

Cc1ccc(NC(=O)c2ccc(CN3CCN(C)CC3)cc2)cc1Nc1nccc(-c2cccnc2)n1 [Imatinib, 4-(4-methylpiperazin-1-ylmethyl)-N-[4-methyl-3-(4-(pyridin-3-yl)pyrimidin-2-ylamino)phenyl]-benzamide]
Number of patients who achieved a CCR (CML patients): 56
Efficacy compared with IFN+Ara-C ([3]; 400 mg daily, newly diagnosed CML-CP): superior efficacy to IFN+Ara-C
Estimated cumulative rate of complete cytogenetic response (CCR) [3, 6]: 87%
Overall survival [3, 6]: 89%
Trough plasma Imatinib concentration, mean value ([4]; 400 mg daily Imatinib mesylate, 50 patients, steady-state): 1058 ng per millilitre
Trough plasma Imatinib concentration, Q 25 (first quartile) [4, 7]: 722 ng per millilitre
Trough plasma Imatinib concentration, Q 75 (third quartile) [4, 7]: 1285 ng per millilitre
Trough plasma Imatinib concentration, maximum [4, 7]: 2947 ng per millilitre
Trough plasma Imatinib concentration, median [4, 7]: 997 ng per millilitre
Trough plasma Imatinib concentration, minimum [4, 7]: 181 ng per millilitre
Trough plasma Imatinib concentration, Q 25 (first quartile) [4, 8]: 902 ng per millilitre
Trough plasma Imatinib concentration, Q 75 (third quartile) [4, 8]: 1629 ng per millilitre
Trough plasma Imatinib concentration, maximum [4, 8]: 2922 ng per millilitre
Trough plasma Imatinib concentration, median [4, 8]: 1315 ng per millilitre
Trough plasma Imatinib concentration, minimum [4, 8]: 603 ng per millilitre
Mean (±SD) trough plasma Imatinib concentration ([4]; patients with CCR (56 patients)): 1123.3±616.6 ng per millilitre
Median trough plasma Imatinib concentration ([4]; patients with MMR (34 patients)): 1350.2 ng per millilitre
Mean (±SD) trough plasma Imatinib concentration ([4]; patients without CCR (12 patients)): 694.2±556.0 ng per millilitre
Mean (±SD) trough plasma Imatinib concentration [4, 9]: 869.3±427.5 ng per millilitre
Median trough plasma Imatinib concentration [4, 9]: 885.5 ng per millilitre
Steady-state trough level, mean (±SD) ([1]; Day 29, Quartile 1, N = 87): 490 (±119.7) ng/mL
Steady-state trough level, mean (±SD) ([1]; Day 29, Quartile 4, N = 86): 1661 (±602.0) ng/mL
Steady-state trough level, mean (±SD) [1, 5]: 889 (±148.2) ng/mL
Imatinib trough exposure (Cmin), mean ([1]; Day 29, patients who achieved CCR): 1009 ± 544 ng/mL and 1009 ng/mL
Imatinib trough exposure (Cmin), mean ([1]; Day 29, patients who did not achieve CCR): 812 ± 409 ng/mL and 812 ng/mL
Increase in trough level ([1]; age from 20 years to 70 years, linear relationship assumed): 295 ng/mL
Plasma trough level ([1]; females, steady state): 1078 ± 514.5 ng/mL
concentration at 24 h ([1]; human, plasma, first 400 mg dose, Day 2, mean±SD, read-out: 24-hour trough concentration after the first dose): 518 ± 370 ng/mL
Plasma trough level ([1]; males, steady state): 921 ± 530.8 ng/mL
Difference in plasma trough level, females vs males ([1]; steady state): 17.2%
Estimated decrease in trough level ([1]; weight increase from 40 kg to 120 kg, linear relationship assumed): approximately 280 ng/ml
MMR (%) in pts with CCR (CML-CP patients; 1 year, Quartile 1): 43%
CCR rate (CML-CP patients; 1 year, Quartile 1 (n = 87)): 59%
MMR (%) in pts with CCR (CML-CP patients; 1 year, Quartile 4): 55%
CCR rate (CML-CP patients; 1 year, Quartile 4 (n = 86)): 73%
MMR (%) in pts with CCR (CML-CP patients; 1 year, Quartiles 2 and 3): 56%
CCR rate (CML-CP patients; 1 year, Quartiles 2 and 3 (n = 178)): 71%
CCR rate (CML-CP patients; 2 years, Quartile 1): 73%
MMR (%) in pts with CCR (CML-CP patients; 2 years, Quartile 1): 63%
CCR rate (CML-CP patients; 2 years, Quartile 4): 84%
MMR (%) in pts with CCR (CML-CP patients; 2 years, Quartile 4): 86%
CCR rate (CML-CP patients; 2 years, Quartiles 2 and 3): 80%
MMR (%) in pts with CCR (CML-CP patients; 2 years, Quartiles 2 and 3): 78%
CCR rate (CML-CP patients; 4 years, Quartile 1): 81%
MMR (%) in pts with CCR (CML-CP patients; 4 years, Quartile 1): 65%
CCR rate (CML-CP patients; 4 years, Quartile 4): 89%
MMR (%) in pts with CCR (CML-CP patients; 4 years, Quartile 4): 90%
CCR rate (CML-CP patients; 4 years, Quartiles 2 and 3): 87%
MMR (%) in pts with CCR (CML-CP patients; 4 years, Quartiles 2 and 3): 83%
Time to CCR (CML-CP patients; Quartile 1): 8.3 Month
Time to MMR in pts with CCR (CML-CP patients; Quartile 1): 16.7 months
Time to CCR (CML-CP patients; Quartile 4): 5.6 Month
Time to CCR (CML-CP patients; Quartiles 2 and 3): 5.7 Month
Estimated MMR rate, all patients (CML-CP patients; at 1 year, Imatinib levels <647 ng/mL): 25%
Estimated MMR rate, all patients (CML-CP patients; by 4 years, Q1): 53%
Estimated MMR rate, all patients (CML-CP patients; by 4 years, Q4): 80%
Estimated MMR rate, all patients (CML-CP patients; by 4 years, inter-quartile range (IQ)): 72%
Estimated MMR rate, all patients (CML-CP patients; within 1 year, patients with higher Imatinib levels): 40%
